Results on one compound are retold here after patent US5004756A, “Anti-cancer activity potentiator” (priority 1988, dated 1991).

The test system of data set [1] is V79/S. Description: Anti-cancer activity potentiating action, colony formation, V79/S parent cells (A-III). In kind it is cell-based, Chinese hamster. To be noted: Cricetulus griseus; V79/S; alone; Table 6; read-out: IC50, anti-cancer agent alone. The method, boiled down:
(§1)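 Chinese hamster V79/S (400 cells) and ADM-resistant V79/ADM (600 cells) were preincubated 24 h in Eagle's MEM with 10% bovine serum, then given anti-cancer agents plus the malate of formula (I): 10 μg/ml for sensitive cells, 3, 5 or 10 μg/ml for resistant cells. After 9 days' incubation, IC50 (μg/ml) for colony formation was calculated.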

Data set [2] has as its system clinically isolated human cancer cells (lung adenocarcinoma, lung squamous cell carcinoma, osteosarcoma, ovarian carcinoma). Description: Anti-tumor activity on clinically isolated human cancer cells, morphological changes (A-I Part 2). In kind it is cell-based. To be noted: 3 or 30 μg/ml (3 μg/ml for 3 examples, 30 μg/ml for 5).
Data set [3] concerns V79/ADM. Description: Anti-cancer activity potentiating action, colony formation, V79/ADM resistant cells (A-III). In kind it is cell-based, Chinese hamster. As to conditions: Cricetulus griseus; V79/ADM; alone; Table 6; read-out: IC50, anti-cancer agent alone. The method, boiled down:
as §1

The test system of data set [4] is PLC/Col. The experiment in a line: Colony formation (proliferation) inhibition, colchicin-resistant human hepatoma cells (A-I Part 1). It is filed as cell-based. As to conditions: Homo sapiens, 216 h; PLC/Col; 9 days; Table 1; read-out: IC50. As for the experimental part:
(§2) Sensitive cell line V79/S and ADM-resistant cell line V79/ADM of the Chinese hamster were used, and sensitive cell line PLC/S and cholchicin-resistant cell line PLC/Col, as human hepatoma cells.
(§3) The sensitive cell lines (400 cells) or the resistant cell lines (600 cells) were each incubated for 24 hours in 10 ml of Eagle's MEM medium containing 10% bovine serum. Each of the drugs indicated in Table 1 below was dissolved in ethanol, and 50 microliters of the resulting solution was added to the medium. The incubation was further carried out for 9 days. The concentration of the drug which inhibits 50% of the colony formation (proliferation) of the tumor cells was calculated.
(§4) V79/S and V79/ADM were tested by using all of the drugs described above, but PLC/S and PLC/Col were tested by using only the malate of formula (I), adriamycin and peplomycin.
(§5) The concentrations (micrograms/ml) required to inhibit 50% of the proliferation of the tumor cells, expressed by IC50, are shown in Table 1.

In data set [5] the test system is V79/S. The experiment in a line: Colony formation (proliferation) inhibition, sensitive Chinese hamster cells (A-I Part 1). To be noted: Cricetulus griseus, 216 h; V79/S; 9 days; Table 1; read-out: IC50. In kind it is cell-based. The method, boiled down: (§6)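 Cells seeded at 400 (sensitive) or 600 (resistant) per dish in Eagle's MEM with 10% bovine serum for 24 h; drugs added as ethanol solutions, then incubated a further 9 days. IC50 (micrograms/ml) is the concentration giving 50% inhibition of colony formation.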

The subject of data set [6] is PLC/S. Description: Colony formation (proliferation) inhibition, sensitive human hepatoma cells (A-I Part 1). As to conditions: Homo sapiens, 216 h; PLC/S; 9 days; Table 1; read-out: IC50. It is filed as cell-based. The method, then:
as §2, §3, §4, §5

Data set [7] can be described thus: Acute toxicity test in mice, oral. In kind it is in vivo, mouse. To be noted: oral, 2,000 mg/kg. The method, then: Using mice, the malate of formula (I) obtained as above was tested for toxicity. […] Toxicity was neither noted.
A further data set concerns B16 melanoma cells. Description: Life prolongation of BDF1 mice with B16 melanoma (A-II Part 1). It is filed as in vivo, mouse (male BDF1). As to conditions: 5 mg/kg i.p., three times every 4 days. The method, then: Three to eight male BDF1 mice having a body weight of 20±3 g were used, and B16 melanoma cells were selected as tumor cells. The melanoma cells were homogenized, and the homogenate was transplanted subcutaneously to the mice in an amount of 0.5 ml/mouse. After 7 days, the malate of formula (I) in accordance with this invention and an anti-cancer agent, neocartinostatin (NCS), were intraperitoneally administered either singly or in combination three times every 4 days in a dose of 5 mg/kg and 0.45 mg/kg for each time. The life prolonging rate of the mice was determined by the treated group/non-treated control group (T/C %).

The next data set concerns Meth-A. Description: Tumor proliferation inhibiting activity, Meth-A (A-IV). In kind it is in vivo, BALB/c rats. To be noted: for Number of surviving animals: 16 days later; for T/C (tumor weight) / Tumor weight mean ± S.D.: day 16. The method, then:
Female BALB/c rats (7 weeks old), 8 per group, were used. Tumor cells (Meth-A) induced by methyl cholanthrene were transplanted intraperitoneally to the rats, and then the malate of formula (I) was administered intraperitoneally to the rats. The proliferation inhibiting activity of the malate was examined by comparing the weight of the tumor cells with that of the tumor cells in the non-treated control group.
The dose of the malate of formula (I) was 1.25, 2.5, 5.0, and 10.0 mg/kg/day. Mitomycin C (MMC) was administered as another anti-cancer agent. The weight of the tumor cells was measured, and the proliferation inhibiting activity was determined.
The weight (g) of the tumor with respect to that of the tumor in the control group (T/C, %) after 16 days from the transplantation of the tumor cells, and the number of surviving rats after 16 days are shown in Table 8.

Data set [8] deals with PLC/Col. Description: Anti-cancer activity potentiating action, colony formation, PLC/Col resistant cells (A-III). In kind it is cell-based, human. As to conditions: Homo sapiens; PLC/Col; alone; Table 7; read-out: IC50, anti-cancer agent alone. The method, then: (§7) The anti-cancer activity potentiating action of the malate of formula (I) was examined using Chinese hamster cells (sensitive cell line V79/S and ADM-resistant cell line V79/ADM), human hepatoma cells (sensitive cell line PLC/S and colchicin-resistant cell line PLC/Col) and mouse leukemia cells (sensitive cell line L5178Y/S) and aclarubicin-resistant cell line L5178Y/ACR).
(§8) Of these tumor cells, the sensitive cells (400 cells) and the resistant cells (600 cells) were each incubated in 10 ml of Eagle's MEM medium containing 10% bovine serum for 24 hours, and then each of the test drugs indicated in Table 6 was added. Thereafter, the incubation was carried out for 9 days. The concentration (IC50 : micrograms/ml) of the test drug required to inhibit 50% of the colony formation (proliferation) of the tumor cells was calculated.
(§9) As anti-cancer agents, adriamycin (ADM) and peplomycin (PEP) were used in combination with the malate of formula (I) (5 micrograms/ml).

Data set [9] relates to V79/ADM. Description: Colony formation (proliferation) inhibition, ADM-resistant Chinese hamster cells (A-I Part 1). It is filed as cell-based. To be noted: Cricetulus griseus, 216 h; V79/ADM; 9 days; Table 1; read-out: IC50. The method, boiled down:
as §6

Data set [10] has as its system PLC/S. The experiment in a line: Anti-cancer activity potentiating action, colony formation, PLC/S parent cells (A-III). It is filed as cell-based, human. To be noted: Homo sapiens; PLC/S; alone; Table 7; read-out: IC50, anti-cancer agent alone. As for the experimental part: as §7, §8, §9
Setting [11] is: 1.25 mg/kg/day i.p., days 1, 3, 5.
The mark [12] stands for this setting: 2.5 mg/kg/day i.p., days 1, 3, 5.

For orientation: IC50 means the concentration needed to halve the response being measured.

For `COc1ccc(CNCCN(CC=C(C)CCC=C(C)CCC=C(C)CCC=C(C)CCC=C(C)CCC=C(C)CCC=C(C)CCC=C(C)CCC=C(C)C)Cc2ccc(OC)c(OC)c2)cc1OC` [Compound (I), N-solanesyl-N,N'-bis(3,4-dimethoxybenzyl)ethylenediamine malate], the IC50 with V79/S [1] came out at 11.5 µg/mL; in the data set on V79/ADM [3] it was 3 µg/mL; in the data set on PLC/Col [4], 1.7 µg/mL; in the data set on V79/S [5], 11.5 µg/mL; in the data set on PLC/S [6] it was 6.8 µg/mL; with PLC/Col [8], 1.7 µg/mL. The IC50 with V79/ADM [9] was 3 µg/mL; in the data set on PLC/S [10] it was 6.8 µg/mL. For the same compound, the “Efficacy ratio (rated significant by Fisher's test)” value in [2] is 5/8. Besides, in [7], the “Acute toxicity, abnormality in mice” value was “no abnormality was found”. Besides, the “T/C (life prolonging rate at M.S.T.)” value with B16 melanoma cells was 165%. The “Number of surviving animals” value is reported as 8/8 in the data set on Meth-A (setting [11]); 8/8 in the data set with Meth-A (setting [12]); 8/8 in the data set with Meth-A (5.0 mg/kg/day i.p., day 1); 8/8 with Meth-A (10.0 mg/kg/day i.p., day 1). Moreover, the “T/C (tumor weight)” value was found to be 75% with Meth-A (setting [11]); 79% in the data set on Meth-A (setting [12]); 83% in the data set on Meth-A (5.0 mg/kg/day i.p., day 1); 65% in the data set on Meth-A (10.0 mg/kg/day i.p., day 1). The “Tumor weight mean ± S.D.” value in the data set on Meth-A (setting [11]) amounted to 1.255 ± 0.533 g; with Meth-A (setting [12]), 1.327 ± 0.350 g; in the data set on Meth-A (5.0 mg/kg/day i.p., day 1), 1.389 ± 0.644 g; in the data set with Meth-A (10.0 mg/kg/day i.p., day 1) it was 1.091 ± 0.659 g.
